# Assay results published in paper PMC4900628, “Critical Evaluation of P2X7 Receptor Antagonists in Selected Seizure Models” (PLoS ONE, 2016).
# Counter-ions that a name gives are not always drawn.
# How the values were obtained:
# [1] = target: T1, mouse P2X7R (Mus musculus, UniProt Q9Z1M0); test: fluorometric Ca2+ assay (ATP-induced [Ca2+]i response) in HEKmP2X7 cells; type: cell-based; details: fluo-4, 1 mM ATP, read-out: Potency IC50 ± SEM, Mouse P2X7R
# T1 construct: expressed in transfected cells
# T1 sequence (Q9Z1M0 1-595): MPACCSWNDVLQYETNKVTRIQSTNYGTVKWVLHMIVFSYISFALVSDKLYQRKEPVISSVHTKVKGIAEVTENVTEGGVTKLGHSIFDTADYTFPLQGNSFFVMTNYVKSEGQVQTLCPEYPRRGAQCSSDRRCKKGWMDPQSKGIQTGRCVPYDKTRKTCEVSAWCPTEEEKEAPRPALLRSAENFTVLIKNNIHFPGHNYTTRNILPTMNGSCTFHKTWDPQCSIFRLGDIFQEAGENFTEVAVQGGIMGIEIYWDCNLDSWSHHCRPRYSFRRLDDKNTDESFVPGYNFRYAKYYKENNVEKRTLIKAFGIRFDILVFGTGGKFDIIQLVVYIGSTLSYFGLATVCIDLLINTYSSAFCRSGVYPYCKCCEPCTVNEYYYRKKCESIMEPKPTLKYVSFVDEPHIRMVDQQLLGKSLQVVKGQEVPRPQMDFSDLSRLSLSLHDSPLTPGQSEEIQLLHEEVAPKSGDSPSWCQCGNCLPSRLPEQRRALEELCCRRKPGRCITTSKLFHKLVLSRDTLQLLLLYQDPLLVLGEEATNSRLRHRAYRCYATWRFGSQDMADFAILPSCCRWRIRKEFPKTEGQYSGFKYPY
# Method: (§1) Cells were grown in a humidified incubator at 37°C in an atmosphere supplemented with 5% CO2. […] HEK293mP2X7 were cultured in DMEM under similar conditions as described above, but containing 100 μg/ml zeocin (Invitrogen). […] Expression of the transgene was induced by supplementing the medium with 1 μg/ml tetracycline (Sigma-Aldrich, Taufkirchen, Germany) 24 h prior to the experiments. All fluorometric Ca^2+ assays in cell suspensions were performed in 384-microwell plates (Corning, No. 3655, Lowell, MA, USA) with a fluorescence-imaging microplate reader (POLARstar Omega, BMG Labtech, Offenburg, Germany) (for details, see [61, 68]). […] Microwell plates were repetitively scanned every 16 s in the fast scanning mode of the device. […] Data were normalized to the baseline values before ATP application (F/F0). […] ATP-solution was freshly prepared in Mg^2+-free HBS solution and adjusted to pH 7.4. Aliquots of stock solutions were stored at -20°C and freshly diluted with the appropriate HBS solution. […] Results are expressed as mean ± SEM. […] In the PTZ-T, the number of animals in the group with clonic seizures and the latency time were analysed using Fisher's exact probability test and the Mann-Whitney rank sum test, respectively. For multiple comparisons of the latency time a one-way ANOVA with the Holm-Sidak post hoc test was used. The influence of AFC on the plasma and brain concentrations of the antiepileptic drugs was statistical compared using the same procedure. In the PTZ-kindling model, the mean seizure stage within a group was calculated in relation to the number of PTZ-injections. Statistical comparison between vehicle- and compound-treated groups in this model was performed with two-way repeated measures ANOVA, followed by the Holm-Sidak post hoc test. […] In fully kindled rats, the calculated mean seizure stage within a group after vehicle- and compound-treatment were compared using a paired t-test. P < 0.05 was the accepted minimum level of significance.
# [2] = target: T2, rat P2X7R (Rattus norvegicus, UniProt Q64663); test: fluorometric Ca2+ assay (ATP-induced [Ca2+]i response) in HEKrP2X7 cells; type: cell-based; details: HEKrP2X7 cells, fluo-4, 1 mM ATP; read-out: Potency IC50 ± SEM, Rat P2X7R
# T2 construct: expressed in transfected cells; host or cells: HEK293 Flp-In T-REx (HEKrP2X7), tetracycline-induced
# T2 sequence (Q64663 1-595): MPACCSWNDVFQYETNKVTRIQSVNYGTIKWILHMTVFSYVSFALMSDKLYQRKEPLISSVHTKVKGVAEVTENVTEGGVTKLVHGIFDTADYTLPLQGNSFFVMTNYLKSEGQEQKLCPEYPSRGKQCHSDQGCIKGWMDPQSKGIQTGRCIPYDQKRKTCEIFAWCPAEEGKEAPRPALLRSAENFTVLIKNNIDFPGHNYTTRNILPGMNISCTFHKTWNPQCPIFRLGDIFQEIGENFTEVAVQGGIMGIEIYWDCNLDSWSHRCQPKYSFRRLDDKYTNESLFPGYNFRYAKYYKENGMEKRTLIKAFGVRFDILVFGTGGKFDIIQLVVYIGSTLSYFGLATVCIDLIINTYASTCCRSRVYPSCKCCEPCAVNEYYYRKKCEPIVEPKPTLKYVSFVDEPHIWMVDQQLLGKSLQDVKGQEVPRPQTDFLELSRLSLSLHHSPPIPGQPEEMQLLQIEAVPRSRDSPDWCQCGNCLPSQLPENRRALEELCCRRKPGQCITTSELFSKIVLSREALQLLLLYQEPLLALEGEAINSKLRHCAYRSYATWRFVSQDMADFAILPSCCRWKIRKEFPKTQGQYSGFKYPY
# Method: as §1
# [3] = test system: PTZ-induced seizures in fully PTZ-kindled rats; test: PTZ-induced seizures in fully kindled rats; type: in vivo; details: fully kindled rats; 100 mg/kg i.p.; pre-drug (vehicle) value 4.0
# Excerpt: Results were expressed as mean seizure stages of a tested group in which the seizure behaviour after vehicle treatment (vehicle seizure stage) and after compound treatment (compound seizure stage), examined 3-4 days later, was matched. For comparison, the effectiveness of two antiepileptic drugs (carbamazepine and valproate) was also investigated. […] Chemicals, Toronto, Canada) was slowly added. The pH was adjusted with 1N NaOH (similar amount of NaOH as HCl), all with continuous stirring. […] The drug solutions or suspensions were prepared immediately before use; all doses refer to the salts. Animals in the control group received equivalent volumes of the vehicle (in mice always 10 ml/kg, in rats 1 ml/kg [JNJ], 3 ml/kg [AFC] or 4 ml/kg [BBG, TIIAS], depending on the solubility of the different compounds). Doses and peak time effects were selected on the basis of effective doses from corresponding in vivo studies in the literature: BBG (e.g.), tanshinone IIA (e.g.) and from manufacturer's experimental data: AFC, JNJ (see, [80]). Data were analysed using SigmaPlot (vers. 12.0, Systat Software, Erkrath, Germany) and SPSS (IBM SPSS Statistics 20, […], Germany), respectively. Results are expressed as mean ± SEM. […] In the MES-T, the current intensity inducing tonic hindlimb extensions in 50% of the mice (CC50 values with confidence limits for 95% probability) and the statistical significance was calculated using Probit analysis (SPSS). […] In the PTZ-T, the number of animals in the group with clonic seizures and the latency time were analysed using Fisher's exact probability test and the Mann-Whitney rank sum test, respectively. For multiple comparisons of the latency time a one-way ANOVA with the Holm-Sidak post hoc test was used. The influence of AFC on the plasma and brain concentrations of the antiepileptic drugs was statistical compared using the same procedure. In the PTZ-kindling model, the mean seizure stage within a group was calculated in relation to the number of PTZ-injections. Statistical comparison between vehicle- and compound-treated groups in this model was performed with two-way repeated measures ANOVA, followed by the Holm-Sidak post hoc test. The mean number of PTZ-injections needed to produce the first generalized seizure (≥ stage 3 convulsions) in the vehicle- versus compound-treated groups was statistically compared using a Mann-Whitney rank sum test. In fully kindled rats, the calculated mean seizure stage within a group after vehicle- and compound-treatment were compared using a paired t-test. P < 0.05 was the accepted minimum level of significance.
# [4] = target: T3, human P2X7R (Homo sapiens, UniProt Q99572); test: fluorometric Ca2+ assay (ATP-induced [Ca2+]i response) in HEKhP2X7 cells; type: cell-based; details: fluo-4, 1 mM ATP, read-out: Potency IC50 ± SEM, Human P2X7R
# T3 construct: expressed in transfected cells
# T3 sequence (Q99572 1-595): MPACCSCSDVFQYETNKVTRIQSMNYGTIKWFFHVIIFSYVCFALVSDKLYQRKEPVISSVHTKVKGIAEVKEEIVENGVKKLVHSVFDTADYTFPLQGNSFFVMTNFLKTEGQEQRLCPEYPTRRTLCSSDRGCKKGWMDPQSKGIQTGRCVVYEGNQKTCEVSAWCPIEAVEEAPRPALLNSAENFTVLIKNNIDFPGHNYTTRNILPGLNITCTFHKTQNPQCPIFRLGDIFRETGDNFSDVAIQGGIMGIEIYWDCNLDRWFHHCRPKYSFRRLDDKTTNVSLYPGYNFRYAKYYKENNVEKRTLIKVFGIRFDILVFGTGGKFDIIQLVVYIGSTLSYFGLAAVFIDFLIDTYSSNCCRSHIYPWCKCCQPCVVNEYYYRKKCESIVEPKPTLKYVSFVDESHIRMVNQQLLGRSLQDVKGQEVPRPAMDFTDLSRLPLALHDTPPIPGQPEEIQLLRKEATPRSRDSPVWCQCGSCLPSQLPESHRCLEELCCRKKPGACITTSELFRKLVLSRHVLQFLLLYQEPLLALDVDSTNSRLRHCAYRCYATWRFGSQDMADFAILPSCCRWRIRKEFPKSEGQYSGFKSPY
# Method: as §1
SMILES,IC50 [1] [nM],IC50 [2] [nM],"mean seizure stage, post-drug [3]",IC50 [4] [nM]
"O=C(CC12CC3CC(CC(C3)C1)C2)Nc1cccc2nc(NCCNCCO)ccc12 [AZ-10606120, N-[2-[[2-[(2-hydroxyethyl)amino]ethyl]amino]-5-quinolinyl]-2-tricyclo[3.3.1.13,7]dec-1-ylacetamide dihydrochloride]",120 ± 5,20 ± 2,–,–
"CCCC(CCC)C(=O)O [Ca-valproate, Ca-valproate dihydrate]",–,–,1.1,–
"Clc1cccc(-c2nnnn2Cc2cccnc2)c1Cl [A-438079, 3-[[5-(2,3-dichlorophenyl)-1H-tetrazol-1yl]methyl]pyridine hydrochloride hydrate]",280 ± 20,220 ± 10,–,70 ± 9
